# Data published in patent publication US11306101B2 (Celgene Corporation, priority 2019, dated 2022).
# Target: T1, CK1α (Homo sapiens, UniProt P48729+Q96SW2)
# T1 construct: expressed in transfected cells
# Assay: CK1α ePL degradation assay in MDS-L cells
# Format: cell-based
# Details: MDS-L cells expressing ePL-tagged CK1α; for DC50: concentration giving 50% CK1α degradation vs DMSO control; for Y: lowest measured CK1α level normalized to DMSO control
# In short: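 MDS-L cells treated with compound in a 10-point, 3-fold series from 10 μM to 0.0005 μM at 37° C, 5% CO2 for the indicated times; CK1α measured by InCELL Hunter enzyme-fragment luminescence. Levels normalized to DMSO as percent of control; lowest level reached taken as Y value.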
# T1 sequence (P48729 whole entry): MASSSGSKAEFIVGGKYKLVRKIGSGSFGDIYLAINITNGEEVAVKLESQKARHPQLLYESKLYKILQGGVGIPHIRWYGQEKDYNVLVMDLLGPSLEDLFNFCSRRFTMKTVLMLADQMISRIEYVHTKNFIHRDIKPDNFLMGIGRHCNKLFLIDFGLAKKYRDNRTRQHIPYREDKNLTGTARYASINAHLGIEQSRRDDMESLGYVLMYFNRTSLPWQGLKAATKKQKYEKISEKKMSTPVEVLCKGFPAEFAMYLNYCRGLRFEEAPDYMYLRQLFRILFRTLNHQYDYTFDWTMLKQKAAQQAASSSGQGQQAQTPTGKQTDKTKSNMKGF
# T1 sequence (Q96SW2 whole entry): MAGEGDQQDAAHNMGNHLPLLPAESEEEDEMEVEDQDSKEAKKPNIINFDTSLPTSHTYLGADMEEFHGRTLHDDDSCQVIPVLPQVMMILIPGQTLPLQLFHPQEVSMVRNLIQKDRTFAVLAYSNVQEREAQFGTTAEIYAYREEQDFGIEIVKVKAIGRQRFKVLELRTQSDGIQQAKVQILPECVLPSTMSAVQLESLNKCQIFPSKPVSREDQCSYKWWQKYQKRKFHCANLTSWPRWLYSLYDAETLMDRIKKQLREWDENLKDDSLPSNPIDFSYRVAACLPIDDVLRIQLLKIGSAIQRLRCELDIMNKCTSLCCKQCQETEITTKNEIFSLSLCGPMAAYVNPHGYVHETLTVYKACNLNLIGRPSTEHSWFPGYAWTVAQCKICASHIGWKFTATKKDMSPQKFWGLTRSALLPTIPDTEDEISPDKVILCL
# T1 sequence (Q16531 whole entry partner): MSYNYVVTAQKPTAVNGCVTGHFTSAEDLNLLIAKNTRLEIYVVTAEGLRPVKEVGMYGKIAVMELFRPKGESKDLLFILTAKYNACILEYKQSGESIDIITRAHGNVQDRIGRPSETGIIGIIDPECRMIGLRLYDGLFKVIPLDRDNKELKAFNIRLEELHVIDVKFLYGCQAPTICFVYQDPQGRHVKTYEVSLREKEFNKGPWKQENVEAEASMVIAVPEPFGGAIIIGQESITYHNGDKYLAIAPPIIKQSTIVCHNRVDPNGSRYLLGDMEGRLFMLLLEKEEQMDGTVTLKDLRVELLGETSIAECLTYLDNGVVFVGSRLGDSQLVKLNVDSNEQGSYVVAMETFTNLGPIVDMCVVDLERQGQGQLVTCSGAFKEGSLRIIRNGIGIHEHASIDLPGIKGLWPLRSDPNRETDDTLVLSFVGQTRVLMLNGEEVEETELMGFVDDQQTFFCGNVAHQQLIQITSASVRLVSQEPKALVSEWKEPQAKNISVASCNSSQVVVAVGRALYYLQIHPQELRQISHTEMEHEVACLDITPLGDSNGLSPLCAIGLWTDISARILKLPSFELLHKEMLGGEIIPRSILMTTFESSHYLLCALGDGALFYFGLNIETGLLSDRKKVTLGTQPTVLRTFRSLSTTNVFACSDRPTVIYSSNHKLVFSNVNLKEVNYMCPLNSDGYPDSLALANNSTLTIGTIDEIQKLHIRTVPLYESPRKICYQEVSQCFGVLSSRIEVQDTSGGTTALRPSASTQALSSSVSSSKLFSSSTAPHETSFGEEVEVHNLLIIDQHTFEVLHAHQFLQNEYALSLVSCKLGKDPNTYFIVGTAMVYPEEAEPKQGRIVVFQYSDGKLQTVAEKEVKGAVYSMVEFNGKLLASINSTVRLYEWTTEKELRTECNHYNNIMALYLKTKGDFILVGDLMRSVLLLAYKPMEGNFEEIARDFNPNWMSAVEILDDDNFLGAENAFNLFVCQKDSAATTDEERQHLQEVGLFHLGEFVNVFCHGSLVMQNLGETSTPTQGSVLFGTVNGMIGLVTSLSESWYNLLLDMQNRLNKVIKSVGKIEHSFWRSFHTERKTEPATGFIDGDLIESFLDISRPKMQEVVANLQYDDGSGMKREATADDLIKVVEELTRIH
DC50,Y,SMILES
< 100 nM,** (a Y value (shown as**) of 20%<Y≤35%),"O=C1CCC(N2Cc3cc(C(=O)N[C@H](c4cc(C(F)(F)F)ccn4)C(F)(F)F)ccc3C2=O)C(=O)N1 (stereo partly drawn) [Example 119, 2-(2,6-dioxopiperidin-3-yl)-1-oxo-N-((R)-2,2,2-trifluoro-1-(4-(trifluoromethyl)pyridin-2-yl)ethyl)isoindoline-5-carboxamide]"
< 100 nM,* (a Y value (shown as *) of 0<Y≤20%),"CC1([C@@H](NC(=O)c2ccc3c(c2)CN(C2CCC(=O)NC2=O)C3=O)C(F)(F)F)CC1 (stereo partly drawn) [Example 78, 2-(2,6-dioxopiperidin-3-yl)-1-oxo-N-((R)-2,2,2-trifluoro-1-(1-methylcyclopropyl)ethyl)isoindoline-5-carboxamide]"
100 to 500 nM,** (a Y value (shown as**) of 20%<Y≤35%),"O=C1CCC(N2Cc3cc(C(=O)N[C@H](c4ncccc4C(F)(F)F)C(F)(F)F)ccc3C2=O)C(=O)N1 (stereo partly drawn) [Example 116, 2-(2,6-dioxopiperidin-3-yl)-1-oxo-N-((R)-2,2,2-trifluoro-1-(3-(trifluoromethyl)pyridin-2-yl)ethyl)isoindoline-5-carboxamide]"
< 100 nM,* (a Y value (shown as *) of 0<Y≤20%),"O=C1CCC(N2Cc3cc(C(=O)N[C@H](c4cccc(C(F)(F)F)n4)C(F)(F)F)ccc3C2=O)C(=O)N1 (stereo partly drawn) [Example 125, 2-(2,6-dioxopiperidin-3-yl)-1-oxo-N-((R)-2,2,2-trifluoro-1-(6-(trifluoromethyl)pyridin-2-yl)ethyl)isoindoline-5-carboxamide]"
< 100 nM,* (a Y value (shown as *) of 0<Y≤20%),"O=C1CC[C@@H](N2Cc3cc(C(=O)N[C@H](c4ccc(F)cc4)C(F)(F)F)ccc3C2=O)C(=O)N1 [Example 104, 2-((R)-2,6-dioxopiperidin-3-yl)-1-oxo-N-((R)-2,2,2-trifluoro-1-(4-fluorophenyl)ethyl)isoindoline-5-carboxamide]"
< 100 nM,* (a Y value (shown as *) of 0<Y≤20%),"CC(C)[C@H](NC(=O)c1ccc2c(c1)CN(C1CCC(=O)NC1=O)C2=O)c1ncccc1Cl (stereo partly drawn) [Example 172, N-((S)-1-(3-chloropyridin-2-yl)-2-methylpropyl)-2-(2,6-dioxopiperidin-3-yl)-1-oxoisoindoline-5-carboxamide]"
< 100 nM,* (a Y value (shown as *) of 0<Y≤20%),"O=C1CCC(N2Cc3cc(C(=O)N[C@H](c4cccc(Oc5ccccc5)c4)C(F)(F)F)ccc3C2=O)C(=O)N1 (stereo partly drawn) [Example 158, 2-(2,6-dioxopiperidin-3-yl)-1-oxo-N-((R)-2,2,2-trifluoro-1-(3-phenoxyphenyl)ethyl)isoindoline-5-carboxamide]"
500 to 1000 nM,** (a Y value (shown as**) of 20%<Y≤35%),C[C@H](NC(=O)c1ccc2c(c1)CN(C1CCC(=O)NC1=O)C2=O)C(C)(C)C (stereo partly drawn) [Example 30]
< 100 nM,* (a Y value (shown as *) of 0<Y≤20%),"O=C1CCC(N2Cc3c(ccc(C(=O)N[C@H](c4ccccc4OC(F)(F)F)C(F)(F)F)c3F)C2=O)C(=O)N1 (stereo partly drawn) [Example 136, 2-(2,6-dioxopiperidin-3-yl)-4-fluoro-1-oxo-N-((R)-2,2,2-trifluoro-1-(2-(trifluoromethoxy)phenyl)ethyl)isoindoline-5-carboxamide]"
100 to 500 nM,** (a Y value (shown as**) of 20%<Y≤35%),"CC(C)(C#N)[C@@H](NC(=O)c1ccc2c(c1)CN(C1CCC(=O)NC1=O)C2=O)C(F)(F)F (stereo partly drawn) [Example 87, N-((R)-3-cyano-1,1,1-trifluoro-3-methylbutan-2-yl)-2-(2,6-dioxopiperidin-3-yl)-1-oxoisoindoline-5-carboxamide]"
100 to 500 nM,** (a Y value (shown as**) of 20%<Y≤35%),"CC(C)(C)[C@@H](NC(=O)c1ccc2c(c1)CN(C1CCC(=O)NC1=O)C2=O)C(F)(F)F (stereo partly drawn) [Example 34, 2-(2,6-dioxopiperidin-3-yl)-1-oxo-N-((R)-1,1,1-trifluoro-3,3-dimethylbutan-2-yl)isoindoline-5-carboxamide]"
100 to 500 nM,** (a Y value (shown as**) of 20%<Y≤35%),CC(C)NC(=O)c1ccc2c(c1)CN(C1CCC(=O)NC1=O)C2=O (stereo not drawn) [Example 2]
100 to 500 nM,* (a Y value (shown as *) of 0<Y≤20%),"O=C1CCC(N2Cc3cc(C(=O)N[C@H]([C@H]4CC[C@@H](O)CC4)C(F)(F)F)ccc3C2=O)C(=O)N1 (stereo partly drawn) [Example 62, 2-(2,6-dioxopiperidin-3-yl)-1-oxo-N-((R)-2,2,2-trifluoro-1-((1s,4S)-4-hydroxycyclohexyl)ethyl)isoindoline-5-carboxamide]"
100 to 500 nM,** (a Y value (shown as**) of 20%<Y≤35%),"O=C1CCC(N2Cc3cc(C(=O)N[C@H](c4cccnc4)C(F)(F)F)ccc3C2=O)C(=O)N1 (stereo partly drawn) [Example 54, 2-(2,6-dioxopiperidin-3-yl)-1-oxo-N-((R)-2,2,2-trifluoro-1-(pyridin-3-yl)ethyl)isoindoline-5-carboxamide]"
< 100 nM,* (a Y value (shown as *) of 0<Y≤20%),"CC(C)[C@@H](NC(=O)c1ccc2c(c1)CN(C1CCC(=O)NC1=O)C2=O)c1ccccc1 (stereo partly drawn) [Example 124, 2-(2,6-dioxopiperidin-3-yl)-N-((R)-2-methyl-1-phenylpropyl)-1-oxoisoindoline-5-carboxamide]"
< 100 nM,* (a Y value (shown as *) of 0<Y≤20%),"C[C@H](NC(=O)c1ccc2c(c1)CN(C1CCC(=O)NC1=O)C2=O)c1ccc(F)cc1Cl (stereo partly drawn) [Example 59, N-((S)-1-(2-chloro-4-fluorophenyl)ethyl)-2-(2,6-dioxopiperidin-3-yl)-1-oxoisoindoline-5-carboxamide]"
100 to 500 nM,* (a Y value (shown as *) of 0<Y≤20%),"O=C1CCC(N2Cc3cc(C(=O)N[C@H](c4ccc(OC(F)(F)F)cc4)C(F)(F)F)ccc3C2=O)C(=O)N1 (stereo partly drawn) [Example 41, 2-(2,6-dioxopiperidin-3-yl)-1-oxo-N-((R)-2,2,2-trifluoro-1-(4-(trifluoromethoxy)phenyl)ethyl)isoindoline-5-carboxamide]"
< 100 nM,* (a Y value (shown as *) of 0<Y≤20%),"O=C1CCC(N2Cc3cc(C(=O)N[C@H](c4ccccc4CN4CCOCC4)C(F)(F)F)ccc3C2=O)C(=O)N1 (stereo partly drawn) [Example 155, 2-(2,6-dioxopiperidin-3-yl)-1-oxo-N-((R)-2,2,2-trifluoro-1-(2-(morpholinomethyl)phenyl)ethyl)isoindoline-5-carboxamide]"
< 100 nM,* (a Y value (shown as *) of 0<Y≤20%),"O=C1CCC(N2Cc3cc(C(=O)N[C@H](c4c(F)cc(F)cc4Cl)C(F)(F)F)ccc3C2=O)C(=O)N1 (stereo partly drawn) [Example 203, N-((R)-1-(2-chloro-4,6-difluorophenyl)-2,2,2-trifluoroethyl)-2-(2,6-dioxopiperidin-3-yl)-1-oxoisoindoline-5-carboxamide]"
< 100 nM,* (a Y value (shown as *) of 0<Y≤20%),C[C@H](NC(=O)c1ccc2c(c1)CN(C1CCC(=O)NC1=O)C2=O)c1ccc(Cl)cc1 (stereo partly drawn) [Example 8]
< 100 nM,* (a Y value (shown as *) of 0<Y≤20%),"O=C1CCC(N2Cc3cc(C(=O)N[C@H](c4ccccc4C(F)(F)F)C(F)(F)F)ccc3C2=O)C(=O)N1 (stereo partly drawn) [Example 47, 2-(2,6-dioxopiperidin-3-yl)-1-oxo-N-((R)-2,2,2-trifluoro-1-(2-(trifluoromethyl)phenyl)ethyl)isoindoline-5-carboxamide]"
100 to 500 nM,* (a Y value (shown as *) of 0<Y≤20%),"CN1CCN(Cc2ccc([C@@H](NC(=O)c3ccc4c(c3)CN(C3CCC(=O)NC3=O)C4=O)C(F)(F)F)cc2)CC1 (stereo partly drawn) [Example 185, 2-(2,6-dioxopiperidin-3-yl)-1-oxo-N-((R)-2,2,2-trifluoro-1-(4-((4-methylpiperazin-1-yl)methyl)phenyl)ethyl)isoindoline-5-carboxamide]"
< 100 nM,* (a Y value (shown as *) of 0<Y≤20%),"O=C1CCC(N2Cc3cc(C(=O)N[C@H](c4ccc(F)cc4)C(F)F)ccc3C2=O)C(=O)N1 (stereo partly drawn) [Example 111, N-((R)-2,2-difluoro-1-(4-fluorophenyl)ethyl)-2-(2,6-dioxopiperidin-3-yl)-1-oxoisoindoline-5-carboxamide]"
100 to 500 nM,* (a Y value (shown as *) of 0<Y≤20%),"O=C1CCC(N2Cc3cc(C(=O)NC(C4CCC5(CC4)CC(O)C5)C(F)(F)F)ccc3C2=O)C(=O)N1 (stereo not drawn) [Example 181, 2-(2,6-dioxopiperidin-3-yl)-1-oxo-N-(2,2,2-trifluoro-1-(2-hydroxyspiro[3.5]nonan-7-yl)ethyl)isoindoline-5-carboxamide]"
100 to 500 nM,** (a Y value (shown as**) of 20%<Y≤35%),"O=C1CCC(N2Cc3c(ccc(C(=O)N[C@@H](CC(F)(F)F)c4cccc(F)c4)c3F)C2=O)C(=O)N1 (stereo partly drawn) [Example 146, 2-(2,6-dioxopiperidin-3-yl)-4-fluoro-1-oxo-N-((S)-3,3,3-trifluoro-1-(3-fluorophenyl)propyl)isoindoline-5-carboxamide]"
< 100 nM,* (a Y value (shown as *) of 0<Y≤20%),"O=C1CCC(N2Cc3c(ccc(C(=O)N[C@H](c4ncc(Cl)cc4Cl)C(F)(F)F)c3F)C2=O)C(=O)N1 (stereo partly drawn) [Example 178, N-((R)-1-(3,5-dichloropyridin-2-yl)-2,2,2-trifluoroethyl)-2-(2,6-dioxopiperidin-3-yl)-4-fluoro-1-oxoisoindoline-5-carboxamide]"

SMILES,DC50,Y
"O=C1CCC(N2Cc3c(ccc(C(=O)N[C@@H](CC(F)(F)F)c4ccc(Cl)cc4)c3F)C2=O)C(=O)N1 (stereo partly drawn) [Example 129, N-((S)-1-(4-chlorophenyl)-3,3,3-trifluoropropyl)-2-(2,6-dioxopiperidin-3-yl)-4-fluoro-1-oxoisoindoline-5-carboxamide]",500 to 1000 nM,*** (a Y value (shown as***) of 35%<Y<50%)
